We go through 21 molecules from patent US20090062253A1, “HETEROCYCLODIAZEPINE CANNABINOID RECEPTOR MODULATORS FOR TREATMENT OF DISEASE” (KALYPSYS, INC., priority 2007, published 2009).

Structures are written as SMILES.

The target of test [1] is T1, human cannabinoid receptor type 1 (Homo sapiens, UniProt P21554).
T1 construct: purchased Perkin Elmer RBHCB1M; host or cells: HEK 293 EBNA cells
Nature of the test: Human CB1 Radioligand Binding Assay (basis of selectivity CB2 vs. CB1). As for the experimental part:
(§1) This receptor binding filtration assay measures the receptor-ligand interactions of compounds by measuring ability to compete with a radiolabeled control ligand. Reactions were performed in 96 deep-well plate (Costar 3961) with a final volume of 600 ul. Compounds were added to each well either in single point (10 uM final) or dose-response. Compounds were delivered in DMSO or further diluted in incubation buffer to a final assay DMSO concentration of 1%. Incubation buffer (50 mM Tris-HCl pH 7.4, 2.5 mM EGTA, 5 mM MgCl2, 5.0 mg/ml fatty acid free BSA) was added to each well. Following buffer addition, [^3H] CP-55,940 was added. Tritiated CP-55,940 (Perkin Elmer) was used at the Kd determined from prior saturation binding experiments conducted on each lot of membranes. Membrane preparations from stably transfected CHO CB2 cells were added and the reaction was incubated for 90 minutes at 30° C. Unifilter GF/C filtration plates (Perkin Elmer) were pre-wet with 0.05% polyethylenimine. Samples were transferred to Unifilter plates and separation of unbound radioligand was achieved using a vacuum manifold (Millipore). Following thorough washing with 5 ml/well ice-cold wash buffer (50 mM Tris-HCl pH 7.4, 2.5 mM EGTA, 5 mM MgCl2, 0.5 mg/ml fatty acid free BSA), filterplates were dried completely. Betaplate Scint Scintillation cocktail (25 ul, Perkin Elmer) was applied and plates were read using Microbeta Trilux (Wallac). Data analysis was performed in Spotfire. Activity of the positive control (100 nM CP-55,940) was set as 100% efficacy.
The CB1 binding assay was performed as described above except that HEK 293 EBNA cells expressing human cannabinoid receptor type 1 (Perkin Elmer cat #RBHCB1M) were used according the manufacturer's instructions. The incubation buffer was composed of 50 mM Tris-HCl pH 7.4, 2.5 mM EDTA, 5 mM MgCl2, 5.0 mg/ml fatty acid free BSA and the wash buffer was composed of 50 mM Tris-HCl pH 7.4, 2.5 mM EDTA, 5 mM MgCl2, 0.5 mg/ml fatty acid free BSA. Activity of the positive control (100 nM CP-55,940) was set as 100% efficacy.

The target in the next test is T2, Human CB2 (Homo sapiens, UniProt P34972).
T2 construct: expressed in transfected cells; membrane preparation
Nature of the test: Human CB2 Radioligand Binding Assay. The conditions noted are these: membranes from stably transfected CHO CB2 cells; competition with [3H] CP-55,940; read-out: CB2 Ligand Binding Asssay. As for the experimental part:
as §1
Stable recombinant Human CB2-CHO cell membranes were prepared as follows: Chinese Hamster Ovarian (CHO) cells stably expressing human cannabinoid receptor type 2 were grown to ˜90% confluence in 15×100 mm culture dishes under puromycin selection (5 ug/ml) Cells were harvested from culture flasks using a cell scraper, were washed once with cold phosphate-buffered saline (calcium and magnesium free) and pelleted by centrifugation at 400 g for 5 min at 4° C. Cell pellet was washed once with cold phosphate-buffered saline and centrifuged again at 400×g for 5 min at 4° C. The pellet was suspended in ice-cold lysis buffer (10 mM Tris-HCl, 0.1 mM EDTA, containing […], pH 7.5) and homogenized in a chilled 7 ml glass dounce homogenizer using 50 strokes. The homogenate was centrifuged at 400 g for 15 min at 4° C. The cloudy supernatant was collected and centrifuged at 41000 g for 30 min at 4° C. The resulting pellet was washed with ice-cold sucrose-free lysis buffer and centrifuged again at 41000 g for 30 min at 4° C. The membrane pellet was suspended in sucrose-free storage buffer (10 mm Tris-HCl, 0.1 mM EDTA, pH 7.5) to a concentration of 2-3 mg protein/ml. Aliquots were flash frozen in liquid nitrogen and stored at −80° C. Concentration was determined using Dc protein assay kit (Bio-Rad).

T1 sequence (P21554 whole entry): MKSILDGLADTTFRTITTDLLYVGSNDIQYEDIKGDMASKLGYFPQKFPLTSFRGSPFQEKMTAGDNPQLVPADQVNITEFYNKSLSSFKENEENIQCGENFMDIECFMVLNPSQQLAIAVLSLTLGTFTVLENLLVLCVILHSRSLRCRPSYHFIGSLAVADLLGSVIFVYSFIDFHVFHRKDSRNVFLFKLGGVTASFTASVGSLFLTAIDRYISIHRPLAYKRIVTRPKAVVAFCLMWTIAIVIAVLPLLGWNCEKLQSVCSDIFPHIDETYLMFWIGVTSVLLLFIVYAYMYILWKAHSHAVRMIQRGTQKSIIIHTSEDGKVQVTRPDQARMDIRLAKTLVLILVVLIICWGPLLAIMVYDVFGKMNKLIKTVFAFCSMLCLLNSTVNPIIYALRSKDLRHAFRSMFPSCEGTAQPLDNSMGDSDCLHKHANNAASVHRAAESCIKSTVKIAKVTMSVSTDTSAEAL
T2 sequence (P34972 whole entry): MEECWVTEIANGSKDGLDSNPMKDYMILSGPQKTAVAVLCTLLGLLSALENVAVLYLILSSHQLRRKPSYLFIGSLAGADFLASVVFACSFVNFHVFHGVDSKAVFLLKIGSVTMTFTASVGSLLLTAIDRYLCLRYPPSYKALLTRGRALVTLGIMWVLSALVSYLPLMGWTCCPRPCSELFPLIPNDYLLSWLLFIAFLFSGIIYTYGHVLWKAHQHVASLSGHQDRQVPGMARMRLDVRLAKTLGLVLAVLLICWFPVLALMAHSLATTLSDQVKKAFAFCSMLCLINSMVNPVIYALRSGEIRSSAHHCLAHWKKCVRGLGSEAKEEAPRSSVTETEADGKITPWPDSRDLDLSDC

For the molecule `O=C(Nc1ccc(F)cc1F)N1CCCn2cccc2C1c1ccccc1` (stereo not drawn) [Example 12, N-(2,4-Difluorophenyl)-1-phenyl-4,5-dihydro-1H-pyrrolo[1,2-a][1,4]diazepine-2(3H)-carboxamide], in test [1], the “Selectivity, CB2 vs. CB1” value is reported as “− (− indicates < 10-fold)”. Also, at Human CB2, the IC50 (radioligand displacement) was over 1 µM.

Regarding `O=C(Nc1ccc(Cl)cc1Cl)N1CCCn2cccc2C1c1ccccc1` (stereo not drawn) [Example 13, N-(2,4-Dichlorophenyl)-1-phenyl-4,5-dihydro-1H-pyrrolo[1,2-a][1,4]diazepine-2(3H)-carboxamide], in test [1], the “Selectivity, CB2 vs. CB1” value is listed as “− (− indicates < 10-fold)”. Also, the IC50 (radioligand displacement) on Human CB2 was over 1 µM.

Take `CC(C)(C)c1cccc(C2c3cccn3CCCN2C(=O)Nc2ccc(F)cc2F)c1` (stereo not drawn) [Example 18, 1-(3-tert-Butylphenyl)-N-(2,4-difluorophenyl)-4,5-dihydro-1H-pyrrolo[1,2-a][1,4]diazepine-2(3H)-carboxamide]: the “Selectivity, CB2 vs. CB1” value in test [1] was “+ (+ indicates > 10-fold)”. The IC50 (radioligand displacement) on Human CB2 is under 1 µM.

Consider `CC(C)(C)c1cccc(C2c3cccn3CCCN2C(=O)Nc2ccc(Cl)cc2Cl)c1` (stereo not drawn) [Example 19, 1-(3-tert-Butylphenyl)-N-(2,4-dichlorophenyl)-4,5-dihydro-1H-pyrrolo[1,2-a][1,4]diazepine-2(3H)-carboxamide], for which the “Selectivity, CB2 vs. CB1” value in test [1] is “− (− indicates < 10-fold)”. The IC50 (radioligand displacement) on Human CB2 was over 1 µM.

As to `O=C(Nc1ccc(Cl)cc1Cl)N1CCCn2cccc2C1Cc1ccccc1` (stereo not drawn) [Example 21, 1-Benzyl-N-(2,4-dichlorophenyl)-4,5-dihydro-1H-pyrrolo[1,2-a][1,4]diazepine-2(3H)-carboxamide], the “Selectivity, CB2 vs. CB1” value in test [1] is listed as “− (− indicates < 10-fold)”. Also, the IC50 (radioligand displacement) at Human CB2 is over 1 µM.

`CC(C)(C)c1ccc(CC2c3cccn3CCCN2C(=O)Nc2ccc(F)cc2F)cc1` (stereo not drawn) [Example 23, 1-(4-tert-Butylbenzyl)-N-(2,4-difluorophenyl)-4,5-dihydro-1H-pyrrolo[1,2-a][1,4]diazepine-2(3H)-carboxamide]: the “Selectivity, CB2 vs. CB1” value in test [1] is “+ (+ indicates > 10-fold)”. The IC50 (radioligand displacement) at Human CB2 was under 1 µM.

Turning to `CC(C)(C)c1ccc(CC2c3cccn3CCCN2C(=O)Nc2ccc(Cl)cc2Cl)cc1` (stereo not drawn) [Example 24, 1-(4-tert-Butylbenzyl)-N-(2,4-dichlorophenyl)-4,5-dihydro-1H-pyrrolo[1,2-a][1,4]diazepine-2(3H)-carboxamide], in test [1], the “Selectivity, CB2 vs. CB1” value is “− (− indicates < 10-fold)”. Further, the IC50 (radioligand displacement) on Human CB2 was under 1 µM.

In the case of `CC(C)(C)c1ccc(C2c3ccnn3CCCN2C(=O)Nc2ccc(Cl)cc2Cl)cc1` (stereo not drawn) [Example 25, 4-(4-tert-Butylphenyl)-N-(2,4-dichlorophenyl)-7,8-dihydro-4H-pyrazolo [1,5-a][1,4]diazepine-5(6H)-carboxamide], the “Selectivity, CB2 vs. CB1” value in test [1] was “+ (+ indicates > 10-fold)”. The IC50 (radioligand displacement) on Human CB2 was under 1 µM.

Turning to `CC(C)(C)c1ccc(C2c3nccn3CCCN2C(=O)Nc2ccc(F)cc2F)cc1` (stereo not drawn) [Example 27, 9-(4-tert-Butylphenyl)-N-(2,4-difluorophenyl)-6,7-dihydro-5H-imidazo [1,2-a][1,4]diazepine-8(9H)-carboxamide], in test [1], the “Selectivity, CB2 vs. CB1” value is recorded as “+ (+ indicates > 10-fold)”. Moreover, at Human CB2, the IC50 (radioligand displacement) is under 1 µM.

Turning to `CC(C)(C)c1ccc(C2c3nccn3CCCN2C(=O)Nc2ccc(F)c(F)c2)cc1` (stereo not drawn) [Example 28, 9-(4-tert-Butylphenyl)-N-(3,4-difluorophenyl)-6,7-dihydro-5H-imidazo[1,2-a][1,4]diazepine-8(9H)-carboxamide], the “Selectivity, CB2 vs. CB1” value in test [1] is “+ (+ indicates > 10-fold)”. Moreover, the IC50 (radioligand displacement) at Human CB2 is under 1 µM.

As to `CC(C)(C)c1ccc(C2c3nccn3CCCN2C(=O)Nc2ccc(Cl)cc2Cl)cc1` (stereo not drawn) [Example 29, 9-(4-tert-Butylphenyl)-N-(2,4-dichlorophenyl)-6,7-dihydro-5H-imidazo[1,2-a][1,4]diazepine-8(9H)-carboxamide], the “Selectivity, CB2 vs. CB1” value in test [1] is listed as “− (− indicates < 10-fold)”. Besides, the IC50 (radioligand displacement) at Human CB2 was over 1 µM.

As for `CC(C)(C)c1ccc(C2c3cncn3CCCN2C(=O)Nc2ccc(Cl)cc2Cl)cc1` (stereo not drawn) [Example 31, 9-(4-tert-Butylphenyl)-N-(2,4-dichlorophenyl)-6,7-dihydro-5H-imidazo[1,5-a][1,4]diazepine-8(9H)-carboxamide], the “Selectivity, CB2 vs. CB1” value in test [1] is recorded as “+ (+ indicates > 10-fold)”. Also, the IC50 (radioligand displacement) at Human CB2 was under 1 µM.

With `CC(C)(C)C1CCC(C2NCCCn3cccc32)CC1` (stereo not drawn) [Example 32, 1-(4-tert-Butylcyclohexyl)-2,3,4,5-tetrahydro-1H-pyrrolo[1,2-a][1,4]diazepine], the “Selectivity, CB2 vs. CB1” value in test [1] was “+ (+ indicates > 10-fold)”. For the same molecule, at Human CB2, the IC50 (radioligand displacement) was over 1 µM.

Take `CC(C)(C)C1CCC(C2c3cccn3CCCN2C(=O)Nc2ccc(F)c(F)c2)CC1` (stereo not drawn) [Example 33, 1-(4-tert-Butylcyclohexyl)-N-(3,4-difluorophenyl)-4,5-dihydro-1H-pyrrolo[1,2-a][1,4]diazepine-2(3H)-carboxamide]: the “Selectivity, CB2 vs. CB1” value in test [1] is given as “− (− indicates < 10-fold)”. Also, the IC50 (radioligand displacement) at Human CB2 was under 1 µM.

Turning to `CC(C)(C)C1CCC(C2c3cccn3CCCN2C(=O)Nc2ccc(F)cc2F)CC1` (stereo not drawn) [Example 34, 1-(4-tert-Butylcyclohexyl)-N-(2,4-difluorophenyl)-4,5-dihydro-1H-pyrrolo[1,2-a][1,4]diazepine-2(3H)-carboxamide], in test [1], the “Selectivity, CB2 vs. CB1” value is “+ (+ indicates > 10-fold)”. Besides, the IC50 (radioligand displacement) on Human CB2 was under 1 µM.

Turning to `CC(C)(C)C1CCC(C2c3cccn3CCCN2C(=O)Nc2ccc(Cl)cc2Cl)CC1` (stereo not drawn) [Example 35, 1-(4-tert-Butylcyclohexyl)-N-(2,4-dichlorophenyl)-4,5-dihydro-1H-pyrrolo[1,2-a][1,4]diazepine-2(3H)-carboxamide], the “Selectivity, CB2 vs. CB1” value in test [1] is “− (− indicates < 10-fold)”. Further, on Human CB2, the IC50 (radioligand displacement) is under 1 µM.

In the case of `CC(C)(C)c1ccc(C2c3ccnn3CCCN2C(=O)Nc2ccc(F)cc2F)cc1` (stereo not drawn) [Example 36, 4-(4-tert-Butylphenyl)-N-(2,4-difluorophenyl)-7,8-dihydro-4H-pyrazolo[1,5-a][1,4]diazepine-5(6H)-carboxamide], the “Selectivity, CB2 vs. CB1” value in test [1] is recorded as “+ (+ indicates > 10-fold)”. Further, the IC50 (radioligand displacement) on Human CB2 is under 1 µM.

With `CC(C)(C)c1ccc(C2c3cncn3CCCN2C(=O)Nc2ccc(F)cc2F)cc1` (stereo not drawn) [Example 37, 9-(4-tert-Butylphenyl)-N-(2,4-difluorophenyl)-6,7-dihydro-5H-imidazo[1,5-a][1,4]diazepine-8(9H)-carboxamide], in test [1], the “Selectivity, CB2 vs. CB1” value is on record as “+ (+ indicates > 10-fold)”. Further, the IC50 (radioligand displacement) at Human CB2 is under 1 µM.

With `O=C(Nc1ccc(F)cc1F)N1CCCn2cccc2C1Cc1ccccc1` (stereo not drawn) [Example 41, 1-Benzyl-N-(2,4-difluorophenyl)-4,5-dihydro-1H-pyrrolo[1,2-a][1,4]diazepine-2(3H)-carboxamide], the “Selectivity, CB2 vs. CB1” value in test [1] was “− (− indicates < 10-fold)”. The IC50 (radioligand displacement) on Human CB2 is over 1 µM.

As to `CC(C)(C)C1CCC(C2c3cccn3CCCN2C(=O)c2ccc(F)cc2F)CC1` (stereo not drawn) [Example 45, (1-(4-tert-Butylcyclohexyl)-4,5-dihydro-1H-pyrrolo[1,2-a][1,4]diazepin-2(3H)-yl)(2,4-difluorophenyl)methanone], the “Selectivity, CB2 vs. CB1” value in test [1] is reported as “− (− indicates < 10-fold)”. The IC50 (radioligand displacement) at Human CB2 was under 1 µM.

`CC(=O)N1CCCn2cccc2C1c1ccc(C(C)(C)C)cc1` (stereo not drawn) [Example 46, 1-(1-(4-tert-Butylphenyl)-4,5-dihydro-1H-pyrrolo[1,2-a][1,4]diazepin-2(3H)-yl)ethanone]: in test [1], the “Selectivity, CB2 vs. CB1” value is recorded as “− (− indicates < 10-fold)”. Further, the IC50 (radioligand displacement) on Human CB2 was over 1 µM.
